In US8324250B2 (Hoffmann-La Roche Inc., priority 2009, dated 2012) one finds Ki data, which are given here for 20 compounds.

In the assay the target is T1, recombinant human NK3 receptor (Homo sapiens, UniProt P29371).
T1 construct: expressed in transfected cells; host or cells: HEK293 cells (transient expression), membranes
T1 sequence (P29371 1-465): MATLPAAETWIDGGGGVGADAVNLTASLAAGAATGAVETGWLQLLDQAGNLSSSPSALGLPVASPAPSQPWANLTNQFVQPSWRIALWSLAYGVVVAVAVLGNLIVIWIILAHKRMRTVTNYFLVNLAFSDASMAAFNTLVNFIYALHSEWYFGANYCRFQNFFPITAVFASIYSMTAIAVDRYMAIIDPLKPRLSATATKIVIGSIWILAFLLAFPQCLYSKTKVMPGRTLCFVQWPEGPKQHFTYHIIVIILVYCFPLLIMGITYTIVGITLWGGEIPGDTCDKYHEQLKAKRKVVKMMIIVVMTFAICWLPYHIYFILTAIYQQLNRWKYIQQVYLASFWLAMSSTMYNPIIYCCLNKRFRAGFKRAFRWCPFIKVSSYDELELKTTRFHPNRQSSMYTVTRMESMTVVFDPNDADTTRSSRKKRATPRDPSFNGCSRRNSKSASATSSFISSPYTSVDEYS
The assay is described as follows: [3H]SR142801 competition binding assay. The note with it: membranes from HEK293 cells transiently expressing recombinant human NK3 receptor; [3H]SR142801 radioligand; 75 min at RT; Ki by Cheng-Prussoff; read-out: Data Ki (hNK-3 receptor affinity). The essentials:
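Membranes from HEK293 cells transiently expressing the receptor, 5 μg protein/well, in 50 mM Tris-HCl pH 7.4 with 4 mM MnCl2, 1 μM phosphoramidon, 0.1% BSA; nonspecific binding defined with 10 μM SB222200. Filtration and scintillation counting; IC50 from Hill fit, Ki by Cheng-Prussoff using saturation-derived KD, duplicates.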
Regarding `Cc1nc(-c2ccc(C(=O)N3CCC(C(=O)NC(c4ccc(F)cc4)C(C)C)(c4ccc(F)cc4)CC3)cc2)no1` (centres unmarked) [Example 164, 4-(4-Fluoro-phenyl)-1-[4-(5-methyl-[1,2,4]oxadiazol-3-yl)-benzoyl]-piperidne-4-carboxylic acid [1-(4-fluoro-phenyl)-2-methyl-propyl]-amide], the Ki worked out at 0.012 µM.

Regarding `Cc1nc(-c2ccc(C(=O)N3CCC(C(=O)NC(c4ccc(F)cc4)C(F)(F)F)(c4ccc(F)cc4)CC3)cc2)no1` (centres unmarked) [Example 165, 4-(4-Fluoro-phenyl)-1-[4-(5-methyl-[1,2,4]oxadiazol-3-yl)-benzoyl]-piperidne-4-carboxylic acid [2,2,2-trifluoro-1-(4-fluoro-phenyl)-ethyl]-amide], the inhibitory constant (Ki) amounted to 0.066 µM.

With `Cc1nc(-c2ccc(C(=O)N3CCC(C(=O)N[C@@H](C)c4cccc(F)c4)(c4ccc(F)cc4)CC3)cc2)no1` [Example 167, 4-(4-Fluoro-phenyl)-1-[4-(5-methyl-[1,2,4]oxadiazol-3-yl)-benzoyl]-piperidine-4-carboxylic acid [(S)-1-(3-fluoro-phenyl)-ethyl]-amide], the Ki was found to be 0.017 µM.

Regarding `Cc1nc(-c2ccc(C(=O)N3CCC(C(=O)N[C@@H](C)c4ccc(F)cc4)(c4ccc(F)cc4)CC3)cc2)no1` [Example 168, 4-(4-Fluoro-phenyl)-1-[4-(5-methyl-[1,2,4]oxadiazol-3-yl)-benzoyl]-piperidine-4-carboxylic acid [(S)-1-(4-fluoro-phenyl)-ethyl]-amide], the inhibition constant (Ki) is 0.036 µM.

On to `CC(C)C(NC(=O)C1(c2ccc(F)cc2)CCN(C(=O)c2ccc(N3CCCCC3=O)cc2)CC1)c1ccc(F)cc1` (centres unmarked) [Example 171, 4-(4-Fluoro-phenyl)-1-[4-(2-oxo-piperidin-1-yl)-benzoyl]-piperidine-4-carboxylic acid [1-(4-fluoro-phenyl)-2-methyl-propyl]-amide], for which the Ki stood at 0.054 µM.

`C[C@H](NC(=O)C1(c2ccc(F)cc2)CCN(C(=O)c2ccc(N3CCCCC3=O)cc2)CC1)c1cccc(F)c1` [Example 173, 4-(4-Fluoro-phenyl)-1-[4-(2-oxo-piperidin-1-yl)-benzoyl]-piperidine-4-carboxylic acid [(S)-1-(3-fluoro-phenyl)-ethyl]-amide]: the Ki worked out at 0.043 µM.

For the compound `O=C(N1CCN(c2ccc(F)cc2)CC1)N1CCC(C(=O)NC2(c3ccc(F)cc3)CC2)(c2ccc(F)cc2)CC1` [Example 174], the inhibition constant Ki was found to be 0.024 µM.

Regarding `CC(C)C(NC(=O)C1(c2ccc(F)cc2)CCN(C(=O)N2CCN(c3ccc(F)cc3)CC2)CC1)c1ccc(F)cc1` (centres unmarked) [Example 175, 4-(4-Fluoro-phenyl)-1-[4-(4-fluoro-phenyl)-piperazine-1-carbonyl]-piperidine-4-carboxylic acid [1-(4-fluoro-phenyl)-2-methyl-propyl]-amide], the Ki worked out at 0.048 µM.

Regarding `O=C(N1CCN(c2ccc(F)cc2)CC1)N1CCC(C(=O)NC(c2ccc(F)cc2)C(F)(F)F)(c2ccc(F)cc2)CC1` (centres unmarked) [Example 176, 4-(4-Fluoro-phenyl)-1-[4-(4-fluoro-phenyl)-piperazine-1-carbonyl]-piperidine-4-carboxylic acid [2,2,2-trifluoro-1-(4-fluoro-phenyl)-ethyl]-amide], the Ki came to 0.077 µM.

`C[C@H](NC(=O)C1(c2ccc(F)cc2)CCN(C(=O)N2CCN(c3ccc(F)cc3)CC2)CC1)c1cccc(F)c1` [Example 178, 4-(4-Fluoro-phenyl)-1-[4-(4-fluoro-phenyl)-piperazine-1-carbonyl]-piperidine-4-carboxylic acid [(S)-1-(3-fluoro-phenyl)-ethyl]-amide]: the Ki turned out to be 0.019 µM.

With `C[C@H](NC(=O)C1(c2ccc(F)cc2)CCN(C(=O)N2CCN(c3ccc(F)cc3)CC2)CC1)c1ccc(F)cc1` [Example 179, 4-(4-Fluoro-phenyl)-1-[4-(fluoro-phenyl)-piperazine-1-carbonyl]-piperidine-4-carboxylic acid [(S)-1-(4-fluoro-phenyl)-ethyl]-amide], the Ki was determined as 0.018 µM.

For `CC(C)N(NC(=O)C1(c2ccc(F)cc2)CCN(C(=O)c2ccc(-c3ccc(F)cc3)cc2)CC1)c1ccc(F)cc1` [Example 185, 1-(4′-Fluoro-biphenyl-4-carbonyl)-4-(4-fluoro-phenyl)-piperidine-4-carboxylic acid N′-(4-fluoro-phenyl)-N′-ispropyl-hydrazide], the Ki came to 0.0636 µM.

As for `Cc1ccc(NNC(=O)C2(c3ccc(F)cc3)CCN(C(=O)c3ccc(-c4ccc(F)cc4)cc3)CC2)cc1` [Example 187, 1-(4′-Fluoro-biphenyl-4-carbonyl)-4-(4-fluoro-phenyl)-piperidine-4-carboxylic acid N′-p-tolyl-hydrazide], the Ki was 0.0767 µM.

Regarding `O=C(c1ccc(-c2ccc(F)cc2)cc1)N1CCC(C(=O)NNc2ccc(F)c(F)c2)(c2ccc(F)cc2)CC1` [Example 191, 1-(4′-Fluoro-biphenyl-4-carbonyl)-4-(4-fluoro-phenyl)-piperidine-4-carboxylic acid N′-(3,4-difluoro-phenyl)-hydrazide], the inhibition constant (Ki) was 0.017 µM.

In the case of `O=C(c1ccc(-c2ccc(F)cc2)cc1)N1CCC(C(=O)N[C@H](c2cccc(F)c2)C2CC2)(c2ccc(F)cc2)CC1` [Example 193, 1-(4′-Fluoro-biphenyl-4-carbonyl)-4-(4-fluoro-phenyl)-piperidine-4-carboxylci acid [(S)-cyclopropyl-(3-fluoro-phenyl)-methyl]-amide], the Ki was 0.0074 µM.

As to `O=C(c1ccc(-c2ccc(F)cc2)cc1)N1CCC(C(=O)N[C@@H](c2cccc(F)c2)C2CC2)(c2ccc(F)cc2)CC1` [Example 194, 1-(4′-Fluoro-biphenyl-4-carbonyl)-4-(4-fluoro-phenyl)-piperidine-4-carboxylic acid [(R)-cyclopropyl-(3-fluoro-phenyl)-methyl]-amide], the Ki is 0.035 µM.

As to `N#Cc1ccc(N2CCC(C(=O)N3CCC(C(=O)N[C@H](c4cccc(F)c4)C4CC4)(c4ccc(F)cc4)CC3)CC2)nc1` [Example 195, 1-(5′-Cyano-3,4,5,6-tetrahydro-2H-[1,2′]bipyridinyl-4-carbonyl)-4-(4-fluoro-phenyl)-piperidine-4-carboxylic acid [(S)-cyclopropyl-(3-fluoro-phenyl)-methyl]-amide], the inhibition constant (Ki) stood at 0.015 µM.

`Cc1noc(-c2ccc(C(=O)N3CCC(C(=O)N[C@H](c4cccc(F)c4)C4CC4)(c4ccc(F)cc4)CC3)cc2)n1` [Example 196, 4-(4-Fluoro-phenyl)-1-[4-(3-methyl-[1,2,4]oxadiazol-5-yl)-benzoyl]-piperidine-4-carboxylic acid [(S)-cyclopropyl-(3-fluoro-phenyl)-methyl]-amide]: the Ki came to 0.0022 µM.

In the case of `Cc1nc(-c2ccc(C(=O)N3CCC(C(=O)N[C@H](c4cccc(F)c4)C4CC4)(c4ccc(F)cc4)CC3)cc2)no1` [Example 197, 4-(4-Fluoro-phenyl)-1-[4-(5-methyl-[1,2,4]oxadiazol-3-yl)-benzoyl]-piperidine-4-carboxylic acid [(S)-cyclopropyl-(3-fluoro-phenyl)-methyl]-amide], the Ki is 0.0071 µM.

Regarding `O=C(c1ccc(N2CCCCC2=O)cc1)N1CCC(C(=O)N[C@H](c2cccc(F)c2)C2CC2)(c2ccc(F)cc2)CC1` [Example 198, 4-(4-Fluoro-phenyl)-1-[4-(2-oxo-piperidine-1-yl)-benzoyl]-piperidine-4-carboxylic acid [(S)-cyclopropyl-(3-fluoro-phenyl)-methyl]-amide], the Ki amounted to 0.0215 µM.

As usually defined, the Ki is the equilibrium dissociation constant of an inhibitor or competing ligand from its target.
